Assay results taken from patent publication US11174216B2, “Lipids that increase insulin sensitivity and methods of using the same” (Beth Israel Deaconess Medical Center, Inc., priority 2012, dated 2021).

Tests used:
[1] = tested on: LPS-activated dendritic cells; experiment: LPS-induced maturation/activation of bone marrow-derived dendritic cells; format: cell-based, mouse
Experimental: Mouse bone marrow cells were flushed from the femurs and tibiae. The red blood cells were eliminated and the cells plated at a density of 1.0×10^6 cells/mL in RBMI complete medium containing 10% FCS plus 20 ng/ml GM-CSF. The medium was replaced on day 4, and the cells were harvested on day 6 to obtain immature DCs. To obtain mature DCs, LPS was added to the cultures at a final concentration of 100 ng/mL on day 6, and the cells were cultured for an additional 24 h, as previously described by Macia, L., et al. Impairment of dendritic cell functionality and steady-state number in obese mice. J Immunol 177, 5997-6006 (2006), which is incorporated by reference in its entirety. […] The activation status of the BMDCs was evaluated by measuring the expression of MHCII and co-stimulatory molecules using Flow Cytometry and by the production of pro-inflammatory cytokines (IL-6, TNF, IL-12 and IL-1β) which was assessed by ELISA. […]
The immature dendritic cells obtained in the day 6 were maturated with LPS in the presence of different concentrations of 9-PAHSA varying between 100 ng/mL to 20 ug/mL. The cells were maturated for 24 h and the maturation status analyzed by cytokine production and co-stimulatory molecules expression.
The cells were analyzed by Multicolor Flow cytometry. […] The cells were analyzed with an LSR II flow cytometer (BD) and FlowJo software. […]

[2] = tested on: carboxyl ester lipase (CEL)
purified CEL = molecular target: T1, purified CEL (Homo sapiens, UniProt P19835); experiment: Hydrolysis of 9-PAHSA by purified CEL; format: biochemical; conditions: micellar concentrations of NaTC
T1 construct: purchased R&D Systems
T1 sequence (P19835 21-753): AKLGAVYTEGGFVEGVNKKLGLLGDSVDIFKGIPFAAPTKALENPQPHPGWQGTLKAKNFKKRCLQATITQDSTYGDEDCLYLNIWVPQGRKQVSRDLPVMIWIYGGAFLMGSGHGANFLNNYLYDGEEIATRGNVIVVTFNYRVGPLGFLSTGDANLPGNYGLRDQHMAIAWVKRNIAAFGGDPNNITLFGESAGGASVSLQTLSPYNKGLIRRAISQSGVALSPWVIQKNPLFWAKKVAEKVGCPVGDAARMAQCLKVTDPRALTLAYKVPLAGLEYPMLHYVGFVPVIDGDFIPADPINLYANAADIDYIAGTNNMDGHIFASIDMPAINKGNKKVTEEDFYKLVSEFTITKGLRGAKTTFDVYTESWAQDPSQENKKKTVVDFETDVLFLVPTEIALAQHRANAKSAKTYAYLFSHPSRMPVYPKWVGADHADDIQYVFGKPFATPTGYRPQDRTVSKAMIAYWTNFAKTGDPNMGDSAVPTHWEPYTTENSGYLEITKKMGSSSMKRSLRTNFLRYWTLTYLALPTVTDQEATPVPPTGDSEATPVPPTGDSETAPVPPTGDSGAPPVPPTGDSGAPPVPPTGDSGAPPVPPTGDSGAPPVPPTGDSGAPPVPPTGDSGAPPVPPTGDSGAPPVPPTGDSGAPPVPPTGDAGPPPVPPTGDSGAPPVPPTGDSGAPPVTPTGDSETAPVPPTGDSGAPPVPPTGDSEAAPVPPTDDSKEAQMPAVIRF
Source text: To confirm the identification of CEL as a FAHFA hydrolase, a small amount of purified enzyme (available commercially from R&D Systems) was used.

CCCCCCCCCCCCCCCC(=O)OC(CCCCCCCCC)CCCCCCCC(=O)O (stereo not shown) [9-PAHSA, palmitoyl-9-hydroxystearic acid]
LPS-induced dendritic cell activation (expression of MHCII, CD40, CD80, CD86) ([1]; 100 ng/mL LPS, 24 h, flow cytometry): prevents LPS-induced dendritic cell activation in a dose dependent manner | IL-12 production ([1]; LPS-activated dendritic cells, ELISA): blocks IL-12 production | hydrolysis by HEK293T lysates transfected with CEL, AADACL1 or CES3 [2]: only CEL-transfected cell lysate was able to hydrolyze FAHFA above the level of background hydrolysis activity | hydrolysis, measured by 9-HSA production (purified CEL): substantial hydrolysis
